Reference: US8772341B2, “Compositions for the treatment of hoof diseases” (DeLaval Holding AB, priority 2006, dated 2014)

Experiments:
[1] = test system: Bovine Digital Dermatitis (BDD) associated treponeme strains; experiment: Treponema study, broth microdilution germicidal susceptibility (MIC/MBC); format: cell-based; conditions: for MBC (minimal bactericidal concentration): average over six Treponema cultures
From the text: In an experiment carried out at the University of Liverpool, Liverpool, U.K., Treponema species were isolated from dairy farms and six cultures were used to measure the minimum inhibitory concentration (MIC, the lowest concentration which results in maintenance or reduction of inoculum's viability) and minimal bactericidal concentration (MBC, the lowest concentration which results in biocidal activity) of several commonly used germicides.
Six Bovine Digital Dermatitis (BDD) associated treponeme strains (Table 1) were used to investigate in vitro susceptibility of BDD associated Treponema (Evans, N. J.; Brown, J.; Demirkan, I.; Carter, S. D.; Hart, C. A. “In vitro susceptibility of Bovine Digital Dermatitis associated Treponema to antimicrobial agents” to be submitted to Antimicrob. Agents Chemother. To be submitted for publication September 2007). The strains included two isolates from each of three distinct phylogroups corresponding to three proposed new taxa, Treponema medium subsp. bovis, Treponema bovis and Treponema pedis (Evans, N. J.; Brown, J.; Demirkan, I. Murray, R. D.; Vink, D.; Blowey, R. W.; Hart, C. A.; Carter, S. D. “Tremponema medium subsp. bovis subsp. nov., Treponema bovis sp. nov. and Treponema pedis sp. nov.; novel spirochaetes associated with Bovine Digital Dermatitis.” International Journal of Systematic and Evolutionary Microbiology. Submitted for publication Oct. 18, 2006). […]
To determine MIC values, absorbance at 540 nm was measured for the microplate wells using a Multiskan microtitre plate reader (Thermo Scientific, Hampshire, U.K.). Measurements were recorded before and after incubation at 36° C. under anaerobic conditions—three days for T. pedis strains and four days for T. bovis and T. medium subsp. bovis strains. […] Cell growth was determined by comparison of the absorbance measurement immediately before and after incubation. […]
Microplates were incubated for a further four days at 36° C. under anaerobic conditions. Growth was assessed using phase contrast microscopy. […]

E. coli (ATCC 11229) = experiment: modified AOAC sanitizer test (germicidal activity, with or without manure); format: cell-based, Escherichia coli
Protocol: (§1) The germicidal activity of a large number of ingredients has been tested for the ability to kill Escherichia coli and Staphylococcus aureus in mixtures that have been contaminated with 10% and 20% manure. E. coli and S. aureus were chosen as representative bacteria for screening purposes. Solutions of the mixtures with 10% manure and bacteria were prepared, and the reduction in the concentration of bacteria was determined after 30 seconds and again after 5 minutes. In addition, the formulas were evaluated for skin irritation based on in vitro test data. The testing method used was that of Wolfgang J. W. Pape, Udo Hoppe: In vitro Methods for the Assessment of Primary Local Effects of Topically Applied Preparations. Skin Pharmacol. (1991), 4: 205-212, which is incorporated herein by reference.
(§2) Experiments were performed to test the germicidal properties of the disclosed compositions using a modified version of the AOAC sanitizer test (Association of Official Analytical Chemists. 1990. Official Methods of Analysis, Pages 138-140 in Germicidal and Detergent Sanitizing Action of Disinfectants 960.09, Vol. I. 15th ed. AOAC, Arlington, Va.). According to this procedure, manure was collected from a dairy farm, dispensed into flasks and autoclaved at 121° C. and 17 psi for 30 minutes. Manure samples were then stored in a freezer until needed. When needed, manure was thawed at room temperature then dispensed into 250 mL Erlenmeyer flasks in amounts appropriate for the challenge desired (10 g for 10% manure, 20 g for 20% manure, etc.). The flasks with manure, and any empty flasks needed, were capped with aluminum foil and autoclaved at 134° C. and ˜20 psi for 4 min.
(§3) Freeze-dried pellets of E. coli (ATCC 11229) and S. aureus (ATCC 6538) were hydrated, placed in test tubes containing nutrient agar and incubated at 37° C. for 24 hours. Sterile buffer (0.0003 M phosphate adjusted to pH 6.6) was used to dilute and transfer the bacteria to additional nutrient agar tubes, which were incubated for another 24 hours. S. aureus was then diluted with buffer and transferred to nutrient agar in French bottles, and E. coli was diluted and transferred to fresh nutrient agar tubes. Both types of bacteria were incubated at 37° C. for 72 hours. E. coli was then diluted and transferred to nutrient agar in French bottles. Sterile buffer and glass beads were added to the S. aureus French bottles and the solution was vacuum filtered through a #2 filter. […] After 24 hours, the E. coli suspension was collected in the same manner.
(§4) Germicide sample solutions were prepared and dispensed into the flasks containing manure. For tests without manure, 99 mL of germicide were added to an empty, sterile, 250 mL flask. […]

S. aureus (ATCC 6538) = experiment: as above; format: cell-based, Staphylococcus aureus
Protocol: as §1, §2, §3, §4

[2] = test system: hoof diseases (heel erosion, interdigital dermatitis, foot rot, white line abscess, digital dermatitis); experiment: field trial of hoof bath at a commercial dairy farm; format: in vivo, cows; conditions: for Digital Dermatitis, number of hooves / Foot Rot, number of hooves / Heel Erosion, number of hooves / Interdigital Dermatitis, number of hooves / Total number of hoof problems / White Line Abscess, number of hooves: 178 hooves
Protocol: An 18% solution of N,N-bis(3-aminopropyl)dodecylamine with 0.17% FD&C Red #40 and 0.28% FD&C Yellow #5 was tested in a field trial at a commercial dairy farm. The product was diluted at a rate of 1+66 V/V and used to fill a hoof bath trough that the cows walked through as they left the milking parlor. A fresh hoof bath solution was prepared every day and the cows walked through the solution once each day of the week. For a month before the trial began no hoof bath treatment was applied to the cows. At the start of the trial a complete evaluation of the front and hind hooves was performed by a certified hoof trimmer, along with a veterinarian, who recorded the diseases observed in each hoof. The evaluation of the hooves was again performed after the hoof bath had been used for two months. All hooves that were present for both evaluations, and were not were not treated with antibiotics and wrapped at the first evaluation, were included in the data. […] The trial included 178 hooves.

red blood cells = experiment: in vitro irritation test on isolated red blood cells (haemolysis, denaturation); format: cell-based, calf; conditions: 18% solution
Protocol: as §1
Irritation tests were performed to determine whether or not the disclosed compositions would be mild enough for topical application. These tests involved two measurements made on fresh calf blood, where red blood cells were isolated by adding 50 mL of sodium citrate buffer (17.03 g trisodium citrate+8.45 g citric acid diluted to 1 L with bacteria-free DI water) to every 450 mL of blood, then repetitively washing with sodium citrate buffer and centrifuging to remove white blood cells and plasma.
Compositions disclosed herein were introduced into a container containing the isolated red blood cells and values for Haemolysis (H50); a Denaturation Index value (DI); and a Lysis/Denaturation Ratio (L/D) were determined using methods disclosed by Wolfgang J. W. Pape, Udo Hoppe: In vitro Methods for the Assessment of Primary Local Effects of Topically Applied Preparations. Skin Pharmacol. (1991), 4: 205-212. The haemolysis—or tendency of the red blood cells to rupture when in contact with the test product—was measured by the half-haemolysis value H50. The denaturation of protein caused by the test product was measured by the denaturation index (DI). The overall irritation value for a product was determined by the ratio of the H50/DI which is referred to as the lysis/denaturation quotient. The overall irritation score is given by the lysis/denaturation value which is calculated by the equation: L/D=H50 (measured in ppm)/DI (measured in %).
The higher the ppm value for H50 the less irritating the product. A crude scale is H50>500 ppm (non-irritant); 120-500 (slight irritant), 30-120 (moderate irritant), 10-30 (irritant) and 0-10 (strong irritant).
The L/D ratio is the primary value used to determine irritation. […]

[3] = 18% solution diluted 1+33 with potable water, 5 minutes exposure, 20% manure
[4] = 18% solution diluted 1+66 with potable water (0.27%), 30 seconds exposure, 20% manure
[5] = 18% solution diluted 1+66 with potable water (0.27%), 5 minutes exposure, no manure
[6] = 18% solution diluted 1+180 with potable water (0.1%), 5 minutes exposure, 10% manure
[7] = Primary Evaluation (start of trial, before hoof bath)
[8] = Secondary Evaluation after two months of daily hoof bath, 1+66 V/V

Compound: C=O [formaldehyde]
- average MEC ([1]; six Treponema cultures): 0.0094 % w/w

Compound: CCCCCCCCCCCCN(CCCN)CCCN [N,N-bis(3-aminopropyl)dodecylamine]
- log reduction (E. coli (ATCC 11229); [3]): > 8.0 log
- log reduction (E. coli (ATCC 11229); [4]): > 8 log
- log reduction (E. coli (ATCC 11229); [5]): > 8 log
- log reduction (E. coli (ATCC 11229); [6]): > 7.97 log
- MBC (minimal bactericidal concentration) [1]: 0.00051 % w/w
- log reduction (S. aureus (ATCC 6538); [3]): > 7.94 log
- log reduction (S. aureus (ATCC 6538); [4]): 4.8 log
- log reduction (S. aureus (ATCC 6538); [5]): > 8 log
- log reduction (S. aureus (ATCC 6538); [6]): > 7.94 log
- Digital Dermatitis, number of hooves [2, 7]: 33
- Foot Rot, number of hooves [2, 7]: 0
- Heel Erosion, number of hooves [2, 7]: 43
- Interdigital Dermatitis, number of hooves [2, 7]: 2
- Total number of hoof problems [2, 7]: 78
- White Line Abscess, number of hooves [2, 7]: 0
- Digital Dermatitis, number of hooves [2, 8]: 25
- Foot Rot, number of hooves [2, 8]: 0
- Interdigital Dermatitis, number of hooves [2, 8]: 0
- Total number of hoof problems [2, 8]: 51
- White Line Abscess, number of hooves [2, 8]: 1
- Heel Erosion, number of hooves ([2]; Secondary Evaluation after two months of daily hoof bath, 18% solution with dyes diluted 1+66 V/V): 25
- reduction in the total number of hoof problems ([2]; after two months of hoof bath treatment): ~35%
- hooves with digital dermatitis at the beginning of the trial that were cured ([2]; after two months of treatment): Forty
- hooves not infected at the beginning that did not develop any signs of digital dermatitis ([2]; by the end of the two month treatment): ninety
- skin irritation (conclusion from L/D) (red blood cells): does not cause skin irritation
- combined L/D value (lysis/denaturation ratio) (red blood cells; L/D = H50/DI): 7×10^3
- DI value (denaturation index) (red blood cells; calf red blood cells): 2.6%
- H50 value (half-haemolysis) (red blood cells; calf red blood cells): 18000 ppm

Compound: O=S(=O)([O-])[O-].[Cu+2] [copper sulfate]
- MBC (minimal bactericidal concentration) [1]: 0.0054 % w/w
